Measured values as given in patent US12180485B2, “Repressible control of gene expression” (TRUSTEES OF BOSTON UNIVERSITY, priority 2020, dated 2024).
Where two headings read alike, the source gives them in different places.

Assays:
mammalian systems = details: cited from earlier work
CID domains = details: cited from earlier work; for Kd: ligand / CID dimerization domain, read-out: Dissociation constant (Kd); for Reversibility: reversibility of the ligand-induced dimerization / action
mCherry [1] = experiment: Drug inhibited knockdown system (Cas13 OFF switch, dNS3/ANR domains), mCherry expression; type: cell-based; details: split Cas13d linked to dNS3 and ANR domains
Cre reporter = experiment: Caffeine inducible split Cre (CaffVHH), Cre reporter in transfected cells; type: cell-based
mCherry [2] = experiment: mCherry knockdown by inducible split RfxCas13d (ON switch) in transfected HEK 293 FT cells, flow cytometry; type: cell-based; details: for knockdown with assistance of gRNA: mCherry
NS3a/danoprevir complex = NS3a/danoprevir complex (Hepatitis C virus genotype 1a, UniProt P27958, T1100M/T1173A); details: cited from earlier work
grazoprevir/NS3a complex = grazoprevir/NS3a complex (Hepatitis C virus genotype 1a, UniProt P27958, T1100M/T1173A); details: cited from earlier work
asunaprevir-bound NS3a = asunaprevir-bound NS3a (Hepatitis C virus genotype 1a, UniProt P27958, T1100M/T1173A); details: cited from earlier work
[3] = toxicity in mammalian systems at working concentration

Gibberellin
Toxicity* (mammalian systems; [3]): yes | Kd (CID domains): 1000 nM | Reversibility (CID domains): yes

C=C[C@@H]1C[C@]1(NC(=O)[C@@H]1C[C@@H]2CN1C(=O)[C@H](C(C)(C)C)NC(=O)O[C@@H]1C[C@H]1CCCCCc1nc3ccc(OC)cc3nc1O2)C(=O)NS(=O)(=O)C1CC1.O [Grazoprevir, reference compound]
inhibition of constitutive knockdown activity of the OFF switch (mCherry [1]): able to inhibit the constitutive knockdown activity | Toxicity* (mammalian systems; [3]): no | Kd (CID domains): 0.02 nM | Reversibility (CID domains): yes

Cn1c(=O)c2c(ncn2C)n(C)c1=O [caffeine, reference compound]
caffeine concentration able to turn on Cre activity and generate reporter expression (Cre reporter; 48 hours): 0.1 µM | caffeine concentration not sufficient to induce recombination (Cre reporter; FIG. 1C): 0.01 µM | caffeine concentration over which recombination efficiency did not increase significantly (Cre reporter; FIG. 1C): over 50 uM | Toxicity* (mammalian systems; [3]): no | Kd (CID domains): 1200 nM | Reversibility (CID domains): yes

CO[C@H]1C[C@@H]2CC[C@@H](C)[C@@](O)(O2)C(=O)C(=O)N2CCCC[C@H]2C(=O)O[C@H]([C@H](C)C[C@@H]2CC[C@@H](O)[C@H](OC)C2)CC(=O)[C@H](C)/C=C(\C)[C@@H](O)[C@@H](OC)C(=O)[C@H](C)C[C@H](C)/C=C/C=C/C=C/1C [Rapamycin]
Toxicity* (mammalian systems; [3]): no

CC1=CC(=O)CC(C)(C)[C@@]1(O)/C=C/C(C)=C\C(=O)O [Abscisic acid]
Toxicity* (mammalian systems): no | Kd (CID domains): 20 nM | Reversibility (CID domains): yes

CC/C(=C(\c1ccccc1)c1ccc(OCCN(C)C)cc1)c1ccccc1 [Tamoxifen]
Toxicity* (mammalian systems; [3]): no | Reversibility (CID domains): hardly

CC(C)(C)OC(=O)N[C@H]1CCCCC/C=C\[C@@H]2C[C@@]2(C(=O)NS(=O)(=O)C2CC2)NC(=O)[C@@H]2C[C@@H](OC(=O)N3Cc4cccc(F)c4C3)CN2C1=O [Danoprevir]
inhibition of constitutive knockdown activity of the OFF switch (mCherry [1]): able to inhibit the constitutive knockdown activity

B1: single CaffVHH: single CaffVHH version of split Cre 270/271 (protein)
VHH: EVQLQASGGGLVQAGGSLRLSCTASGRTGTIYSMAWFRQAPGKEREFLATVGWSSGITYYMDSVKGRFTISRDNAKNSAYLQMNSLKPEDTAVYYCTATRAYSVGYDYWGQGTQVTVSH
caffeine concentration achieving maximum recombination efficiency (Cre reporter; dose response, split Cre 270/271): 500 µM

B2: 177/178: RfxCas13d split pair at 177/178 (protein)
chain 1: IEKKKSFAKGMGVKSTLVSGSKVYMTTFAEGSDARLEKIVEGDSIRSVNEGEAFSAEMADKNAGYKIGNAKFSHPKGYAVVANNPLYTGPVQQDMLGLKETLEKRYFGESADGNDNICIQVIHNILDIEKILAEYITNAAYAVNNISGLDKDIIGFGKFSTVYTYDEFKDPEHHRAA
chain 2: FNNNDKLINAIKAQYDEFDNFLDNPRLGYFGQAFFSKEGRNYIINYGNECYDILALLSGLRHWVVHNNEEESRISRTWLYNLDKNLDNEYISTLNYLYDRITNELTNSFSKNSAANVNYIAETLGINPAEFAEQYFRFSIMKEQKNLGFNITKLREVMLDRKDMSEIRKNHKVFDSIRTKVYTMMDFVIYRYYIEEDAKVAAANKSLPDNEKSLSEKDIFVINLRGSFNDDQKDALYYDEANRIWRKLENIMHNIKEFRGNKTREYKKKDAPRLPRILPAGRDVSAFSKLMYALTMFLDGKEINDLLTTLINKFDNIQSFLKVMPLIGVNAKFVEEYAFFKDSAKIADELRLIKSFARMGEPIADARRAMYIDAIRILGTNLSYDELKALADTFSLDENGNKLKKGKHGMRNFIINNVISNKRFHYLIRYGDPAHLHEIAKNEAVVKFVLGRIADIQKKQGQNGKNQIDRYYETCIGKDKGKSVSEKVDALTKIITGMNYDQFDKKRSVIEDTGRENAEREKFKKIISLYLTVIYHILKNIVNINARYVIGFHCVERDAQLYKEKGYDINLKKLEEKGFSSVTKLCAGIDETAPDKRKDVEKEMAERAKESIDSLESANPKLYANYIKYSDEKKAEEFTRQINREKAKTALNAYLRNTKWNVIIREDLLRIDNKTCTLFRNKAVHLEVARYVHAYINDIAEVNSYFQLYHYIMQRIIMNERYEKSSGKVSEYFDAVNDEKKYNDRLLKLLCVPFGYCIPRFKNLSIEALFDRNEAAKFDKEKKKVSGNS
knockdown with assistance of gRNA (mCherry [2]): relatively efficient knockdown

B3: 384/385: RfxCas13d split pair at 384/385 (protein)
chain 1: IEKKKSFAKGMGVKSTLVSGSKVYMTTFAEGSDARLEKIVEGDSIRSVNEGEAFSAEMADKNAGYKIGNAKFSHPKGYAVVANNPLYTGPVQQDMLGLKETLEKRYFGESADGNDNICIQVIHNILDIEKILAEYITNAAYAVNNISGLDKDIIGFGKFSTVYTYDEFKDPEHHRAAFNNNDKLINAIKAQYDEFDNFLDNPRLGYFGQAFFSKEGRNYIINYGNECYDILALLSGLRHWVVHNNEEESRISRTWLYNLDKNLDNEYISTLNYLYDRITNELTNSFSKNSAANVNYIAETLGINPAEFAEQYFRFSIMKEQKNLGFNITKLREVMLDRKDMSEIRKNHKVFDSIRTKVYTMMDFVIYRYYIEEDAKVAAANKSL
chain 2: PDNEKSLSEKDIFVINLRGSFNDDQKDALYYDEANRIWRKLENIMHNIKEFRGNKTREYKKKDAPRLPRILPAGRDVSAFSKLMYALTMFLDGKEINDLLTTLINKFDNIQSFLKVMPLIGVNAKFVEEYAFFKDSAKIADELRLIKSFARMGEPIADARRAMYIDAIRILGTNLSYDELKALADTFSLDENGNKLKKGKHGMRNFIINNVISNKRFHYLIRYGDPAHLHEIAKNEAVVKFVLGRIADIQKKQGQNGKNQIDRYYETCIGKDKGKSVSEKVDALTKIITGMNYDQFDKKRSVIEDTGRENAEREKFKKIISLYLTVIYHILKNIVNINARYVIGFHCVERDAQLYKEKGYDINLKKLEEKGFSSVTKLCAGIDETAPDKRKDVEKEMAERAKESIDSLESANPKLYANYIKYSDEKKAEEFTRQINREKAKTALNAYLRNTKWNVIIREDLLRIDNKTCTLFRNKAVHLEVARYVHAYINDIAEVNSYFQLYHYIMQRIIMNERYEKSSGKVSEYFDAVNDEKKYNDRLLKLLCVPFGYCIPRFKNLSIEALFDRNEAAKFDKEKKKVSGNS
knockdown with assistance of gRNA (mCherry [2]): relatively efficient knockdown

B4: 507/508: RfxCas13d split pair at 507/508 fused to CID or dNS3/ANR domains (protein)
chain 1: IEKKKSFAKGMGVKSTLVSGSKVYMTTFAEGSDARLEKIVEGDSIRSVNEGEAFSAEMADKNAGYKIGNAKFSHPKGYAVVANNPLYTGPVQQDMLGLKETLEKRYFGESADGNDNICIQVIHNILDIEKILAEYITNAAYAVNNISGLDKDIIGFGKFSTVYTYDEFKDPEHHRAAFNNNDKLINAIKAQYDEFDNFLDNPRLGYFGQAFFSKEGRNYIINYGNECYDILALLSGLRHWVVHNNEEESRISRTWLYNLDKNLDNEYISTLNYLYDRITNELTNSFSKNSAANVNYIAETLGINPAEFAEQYFRFSIMKEQKNLGFNITKLREVMLDRKDMSEIRKNHKVFDSIRTKVYTMMDFVIYRYYIEEDAKVAAANKSLPDNEKSLSEKDIFVINLRGSFNDDQKDALYYDEANRIWRKLENIMHNIKEFRGNKTREYKKKDAPRLPRILPAGRDVSAFSKLMYALTMFLDGKEINDLLTTLINKFDNIQSFLKVMPLIGVN
chain 2: AKFVEEYAFFKDSAKIADELRLIKSFARMGEPIADARRAMYIDAIRILGTNLSYDELKALADTFSLDENGNKLKKGKHGMRNFIINNVISNKRFHYLIRYGDPAHLHEIAKNEAVVKFVLGRIADIQKKQGQNGKNQIDRYYETCIGKDKGKSVSEKVDALTKIITGMNYDQFDKKRSVIEDTGRENAEREKFKKIISLYLTVIYHILKNIVNINARYVIGFHCVERDAQLYKEKGYDINLKKLEEKGFSSVTKLCAGIDETAPDKRKDVEKEMAERAKESIDSLESANPKLYANYIKYSDEKKAEEFTRQINREKAKTALNAYLRNTKWNVIIREDLLRIDNKTCTLFRNKAVHLEVARYVHAYINDIAEVNSYFQLYHYIMQRIIMNERYEKSSGKVSEYFDAVNDEKKYNDRLLKLLCVPFGYCIPRFKNLSIEALFDRNEAAKFDKEKKKVSGNS
modifications: fused CID or dNS3/ANR domains
notes: RfxCas13d split pair at 507/508 fused to CID or dNS3/ANR domains
performance of reversed CID orientation versus original orientation (mCherry [2]; GIB: N ss-GAI/GID-ss C, ABA: N ss-PYL/ABI-ss C): stronger inducibility and weaker leakiness | knockdown across the various CID systems (mCherry [2]; split pairs coupled with CID domains, with inducer): consistently strong drug-induced knockdown

B5: D5: reader domain, SEQ ID NO: 166 (protein)
chain: SSDEEEARELIERAKEAAERAQEAAERTGDPRVRELARELKRLAQEAAEEVKRDPSSSDVNEALKLIVEAIEAAVDALEAAERTGDPEVRELARELVRLAVEAAEEVQRNPSSSDVNEALLTIVIAIEAAVNALEAAERTGDPEVRELARELVRLAVEAAEEVQRNPSSREVNIALWKIVLAIQEAVESLREAEESGDPEKREKARERVREAVERAEEVQRDPSGWLNH
binding of NS3 in the presence of danoprevir (NS3a/danoprevir complex): moderate binding | binding of NS3 in the presence of grazoprevir (grazoprevir/NS3a complex): moderate binding | binding of NS3 in the presence of asunaprevir (asunaprevir-bound NS3a): some binding

B6: DNCR1: danoprevir/NS3 complex reader, SEQ ID NO: 167 (protein)
chain: SSDEEEARELIERAKEAAERAQEAAERTGDPRVRELARELKRLAQEAAEEVKRDPSSSDVNEALKLIVEAIEAAVDALEAAERTGDPEVRELARELVRLAVEAAEEVQRNPSSSDVNEALLSIVIAIEAAVHALEAAERTGDPEVRELARELVRLAVEAAEEVQRNPSSREVEHALMKIVLAIYEAEESLREAEESGDPEKREKARERVREAVERAEEVQRDPSGWLNH
binding of NS3 in the presence of danoprevir (NS3a/danoprevir complex): high binding | binding of NS3 in the presence of grazoprevir (grazoprevir/NS3a complex): minimal binding | binding of NS3 in the presence of asunaprevir (asunaprevir-bound NS3a): minimal binding

B7: G3: reader domain, SEQ ID NO: 168 (protein)
chain: DIEKLCKKAEEEAKEAQEKADELRQRHPDSQAAEDAEDLANEAEAAVLAACSLAQEHPNADIAKLCIKAASEAAEAASKAAELAQRHPDSQAARDAIKLASQAARAVILAIMLAAENPNADIAKLCIKAASEAAEAASKAAELAQRHPDSQAARDAIKLASQAAEAVERAIWLAAENPNADIAKKCIKAASEAAEEASKAAEEAQRHPDSQKARDEIKEASQKAEEVKERCKS
binding of NS3 in the presence of danoprevir (NS3a/danoprevir complex): no binding | binding of NS3 in the presence of grazoprevir (grazoprevir/NS3a complex): moderate binding | binding of NS3 in the presence of asunaprevir (asunaprevir-bound NS3a): some binding
